Assay results taken from patent US20260055142A1, “PHARMACEUTICAL USE OF POLYPEPTIDE IN PREPARATION OF DRUGS FOR TREATING AND/OR PREVENTING DIABETES AND OBESITY AND RELATED DISEASES THEREOF” (GUANGDONG RAYNOVENT BIOTECH CO., LTD., priority 2022, published 2026).

Experiments:
[1] = target: T1, GLP-1R (Homo sapiens, UniProt P43220); test: In vitro GLP-1R agonistic activity test (cAMP kit); format: cell-based; conditions: HEK293 host cell; without 1% HSA
T1 construct: host or cells: HEK293
Method: The cell lines were constructed by Wuxi […] (Shanghai) Co., Ltd. See details in Table 1 below. [table] The test compounds were diluted at a 4-fold dilution factor in 10 points, starting from an initial concentration of 30 μM. […]

[2] = target: T2, GIPR (Homo sapiens, UniProt P48546); test: In vitro GIPR agonistic activity test (cAMP kit); format: cell-based; conditions: CHO host cell; without 1% HSA
T2 construct: host or cells: CHO
T2 sequence (P48546 22-466): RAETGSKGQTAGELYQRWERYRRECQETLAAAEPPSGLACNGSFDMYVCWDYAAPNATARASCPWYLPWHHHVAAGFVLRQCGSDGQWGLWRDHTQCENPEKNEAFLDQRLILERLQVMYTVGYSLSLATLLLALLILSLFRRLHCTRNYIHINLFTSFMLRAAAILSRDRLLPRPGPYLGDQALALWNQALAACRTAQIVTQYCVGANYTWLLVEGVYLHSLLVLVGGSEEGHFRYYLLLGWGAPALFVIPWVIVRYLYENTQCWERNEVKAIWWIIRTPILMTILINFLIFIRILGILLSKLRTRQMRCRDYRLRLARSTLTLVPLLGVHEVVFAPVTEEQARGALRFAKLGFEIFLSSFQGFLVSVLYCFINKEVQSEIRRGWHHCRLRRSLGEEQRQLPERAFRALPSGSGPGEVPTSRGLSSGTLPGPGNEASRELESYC
Method: The cell lines were constructed by Wuxi […] (Shanghai) Co., Ltd. See details in Table 1 below. […] The test compounds were diluted at a 4-fold dilution factor in 10 points, starting from an initial concentration of 30 μM.

[3] = system: mouse model of obesity; test: In vivo efficacy test in mouse model of obesity; conditions: high-fat diet obese mice, SC Q3d for 22 days; 10 nmol/kg (Semaglutide 30 nmol/kg)
From the text: To study the weight-lowering effect of the series of polypeptides of the present application in animal model of obesity, and to compare them with the marketed counterparts, Tirzepatide and Semaglutide. Mouse model of obesity was obtained by induction with high-fat diet following the reference literature (MOLECULAR METABOLISM, 18 (2018), P3-14). The specific experimental procedure was as follows: the experimental mice were fed with high-fat diet (Research Diet D12492) for 13 weeks. […] These findings indicated the successful establishment of animal models. The test animals were divided into groups. An appropriate amount of the test samples were added into 20 mM sodium citrate buffer following the experimental protocol, and the mixture was vortexed at room temperature to obtain clear solutions of varying concentrations. The obtained solutions were frozen for further use. During the experiment, animals in the model group and the dosing group were administered by means of subcutaneous injection on the outer thighs. The dosing regimen was once every 3 days […]), for a total period of 22 days. Details were as follows. [table] […] After completing the entire dosing test cycle, the test mice were weighed, and the results were shown below.

[4] = system: Db/db (Lepr leptin receptor deficient) mice; test: In vivo efficacy test in mouse model of diabetes; conditions: for Change rate of glycosylated hemoglobin: “−” indicates decrease
From the text: To study the efficacy of the series of polypeptides of the present application in animal model of diabetes, and to compare them with the marketed counterpart Tirzepatide as reported in the literature (MOLECULAR METABOLISM, 18 (2018), P3-14). The glucose-lowering effect of Tirzepatide is much better than that of Semaglutide, and thus Semaglutide was not included in this experiment for comparison. Db/db (Lepr leptin receptor deficient) mice have typical clinical symptoms of diabetes such as extreme obesity, hyperphagia, thirst, and polyuria, and they are ideal animal model of type II diabetes. […] The test animals were divided into groups. An appropriate amount of the test samples were added into 20 mM sodium citrate buffer following the experimental protocol, and the mixture was vortexed at room temperature to obtain clear solutions of varying concentrations. The obtained solutions were frozen for further use. During the experiment, animals in the normal control group, the model group and the dosing group were administered by means of subcutaneous injection on the outer thighs. The dosing regimen was once a day (Qd), for a total period of 4 weeks. Details were as follows: [table] […] The fasting blood glucose level and the change rate of glycosylated hemoglobin level in the test mice were dynamically monitored during the experiment.

T1 sequence (P43220 24-463, species assumed): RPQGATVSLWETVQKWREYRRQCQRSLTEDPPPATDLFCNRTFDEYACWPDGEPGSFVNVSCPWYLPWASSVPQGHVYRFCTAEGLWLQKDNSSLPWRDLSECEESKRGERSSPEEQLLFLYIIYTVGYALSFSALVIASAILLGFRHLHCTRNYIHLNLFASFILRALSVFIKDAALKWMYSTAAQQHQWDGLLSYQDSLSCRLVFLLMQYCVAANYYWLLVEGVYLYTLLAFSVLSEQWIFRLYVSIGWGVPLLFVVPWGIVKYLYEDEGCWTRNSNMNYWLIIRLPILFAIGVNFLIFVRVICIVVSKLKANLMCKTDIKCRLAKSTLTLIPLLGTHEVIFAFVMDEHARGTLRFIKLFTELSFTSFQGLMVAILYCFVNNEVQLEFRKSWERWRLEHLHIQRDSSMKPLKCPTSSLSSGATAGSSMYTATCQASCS

EC50 [1] | EC50 [2] | Compound | Weight change rate [3] | Fasting blood glucose ([4]; Day 0, 5 nmol/kg SC Qd) | Fasting blood glucose ([4]; Day 7, 5 nmol/kg SC Qd) | Fasting blood glucose ([4]; Day 14, 5 nmol/kg SC Qd) | Change rate of glycosylated hemoglobin ([4]; Day 14, 5 nmol/kg SC Qd) | Fasting blood glucose ([4]; Day 21, 5 nmol/kg SC Qd) | Change rate of glycosylated hemoglobin ([4]; Day 21, 5 nmol/kg SC Qd) | Change rate of glycosylated hemoglobin ([4]; Day 29, 5 nmol/kg SC Qd)
0.026 nM | 0.4 nM | CC[C@H](C)[C@H](NC(=O)[C@H](CC(C)C)NC(=O)[C@H](Cc1c[nH]c2ccccc12)NC(=O)[C@H](C)NC(=O)[C@@H](NC(=O)[C@H](Cc1ccccc1)NC(=O)[C@H](C)NC(=O)[C@@H]1CCCCNC(=O)CN(C(=O)COCCOCCNC(=O)COCCOCCNC(=O)CC[C@H](NC(=O)CCCCCCCCCCCCCCCCCCC(=O)O)C(=O)O)CC(=O)NCCCC[C@H](NC(=O)[C@H](CCCCN)NC(=O)[C@H](CC(=O)O)NC(=O)[C@H](CC(C)C)NC(=O)C(C)(C)NC(=O)[C@@H](NC(=O)[C@H](CO)NC(=O)[C@H](Cc2ccc(O)cc2)NC(=O)[C@H](CC(=O)O)NC(=O)[C@H](CO)NC(=O)[C@@H](NC(=O)[C@H](Cc2ccccc2)NC(=O)[C@@H](NC(=O)CNC(=O)[C@H](CCC(=O)O)NC(=O)C(C)(C)NC(=O)[C@@H](N)Cc2ccc(O)cc2)[C@@H](C)O)[C@@H](C)O)[C@@H](C)CC)C(=O)N[C@@H](C)C(=O)N[C@@H](CCC(N)=O)C(=O)N1)C(C)C)C(=O)N[C@@H](C)C(=O)NCC(=O)NCC(=O)N1CCC[C@H]1C(=O)N[C@@H](CO)C(=O)N[C@@H](CO)C(=O)NCC(=O)N[C@@H](C)C(=O)N1CCC[C@H]1C(=O)N1CCC[C@H]1C(=O)N1CCC[C@H]1C(=O)N[C@@H](CO)C(N)=O [WX-007] | – | – | – | – | – | – | – | –
– | – | Tirzepatide | −10.20% | 26.7 ± 1.4 mmol/L | 11.6 ± 1.4 mmol/L | 12.6 ± 1.6 mmol/L | −15.9 ± 5.4% | 14.0 ± 1.4 mmol/L | −14.3 ± 4.9% | −10.2 ± 5.7%
